Measurements published in publication PMC8217813, “Bridging Computational Vaccinology and Vaccine Development Through Systematic Identification, Characterization, and Downselection of Conserved and Variable Circumsporozoite Protein CD4 T Cell Epitopes From Diverse Plasmodium falciparum Strains” (Frontiers in Immunology, 2021).
Peptide text beside a SMILES is read from it.

What was measured:
[1] = tested on: CD4 T cells co-cultured with autologous DCs from PBMCs; format: cell-based, human; conditions: positive = Stimulation Index ≥1.5-fold above baseline, 5 µg/mL peptide
HLA-DRB1*1501 = target: T1, HLA-DRB1*1501 (Homo sapiens, UniProt P01903+P01911); test: In vitro class II HLA binding competition assay
T1 construct: purchased
Procedure: (§1) EpiVax conducted in vitro quantification of peptide-HLA binding affinity utilizing a competition assay format per the methodology described in ([35]). Briefly, a fluorescent-labeled, high-binding reference peptide and titrating concentrations of test peptide were incubated in a 96-well plate format with limiting concentrations of class II HLA monomers in aqueous buffer for 24-hours. Post incubation, the mixtures were moved to a 96-well plate coated with anti-HLA-DR antibody to capture HLA-peptide complexes. Time-resolved fluorescence measurement of the bound labeled reference peptide complex present in each mixture were detected with a europium-linked probe via fluorescent spectrophotometry using a SpectraMax M5 system. HLA binding affinity of each test peptide was expressed as the percent inhibition of reference peptide binding. Percent inhibition values (across the test peptide titration range) were used to calculate the half maximal inhibitory concentration (IC50) of each test peptide. For these studies, test peptides were assessed using a range of final concentrations from 100,000 nM to 100 nM and all peptides were reconstituted in dimethyl sulfoxide (DMSO).

HLA-DRB1*0101 = target: T2, HLA-DRB1*0101 (Homo sapiens, UniProt P01903+P01911, A100R/D57E/F55L/F60I/F76Y/I96L/L162R/M171V/P40L/Q125E/R42F/V115G/Y59C); test: In vitro class II HLA binding competition assay; conditions: competition with fluorescent-labeled reference peptide, class II HLA monomers, 24-hours, test peptide 100,000 nM to 100 nM, time-resolved fluorescence
T2 construct: purchased
Procedure: as §1

HLA-DRB1*0401 = target: T3, HLA-DRB1*0401 (Homo sapiens, UniProt P01903+P01911, A100K/A169T/F76Y/I96L/K127E/L162R/M171V/N62H/P40V/Q125Y/R42H/S133A/S149N/S66Y/V115G/V209L/W38E); test: In vitro class II HLA binding competition assay
T3 construct: purchased
Procedure: as §1

HLA-DRB1*0701 = HLA-DRB1*0701 (Homo sapiens, UniProt P01903+P01911, A100R/A102G/A103Q/D57E/D86V/E43K/F76Y/K127E/L162R/M171V/P40G/Q125H/Q99D/R33Q/R42Y/R54Q/S133A/S66F/T210M/V115G/Y107V/Y59L/Y89S); test: In vitro class II HLA binding competition assay
Procedure: as §1

HLA-DRB1*1101 = target: T4, HLA-DRB1*1101 (Homo sapiens, UniProt P01903+P01911, A100R/A169T/A87E/I96F/K41T/L162R/M171V/P40S/Q125H/Q178H/Q39Y/Q99D/R42S/S66Y/T262R/V115G/W38E); test: In vitro class II HLA binding competition assay; conditions: competition with fluorescent-labeled reference peptide, class II HLA monomers, 24-hours, test peptide 100,000 nM to 100 nM, time-resolved fluorescence
T4 construct: purchased
Procedure: as §1

HLA-DRB1*1301 = HLA-DRB1*1301 (Homo sapiens, UniProt P01903+P01911, A100E/A169T/K41T/L162R/M171V/P40S/Q125H/Q178H/Q39Y/Q99D/R42S/S66N/T262R/W38E/Y61H); test: In vitro class II HLA binding competition assay; conditions: competition with fluorescent-labeled reference peptide, class II HLA monomers, 24-hours, test peptide 100,000 nM to 100 nM, time-resolved fluorescence
Procedure: as §1

HLA-DRB1*0801 = HLA-DRB1*0801 (Homo sapiens, UniProt P01903+P01911, A100R/A103L/A169T/D86S/F76Y/H45Y/I96F/K41T/L162R/M171V/P40S/Q125H/Q178H/Q39Y/Q99D/R218S/R42G/S66Y/V115G/W38E); test: In vitro class II HLA binding competition assay; conditions: competition with fluorescent-labeled reference peptide, class II HLA monomers, 24-hours, test peptide 100,000 nM to 100 nM, time-resolved fluorescence
Procedure: as §1

## CC[C@H](C)[C@H](NC(C)=O)C(=O)N[C@H](C(=O)N[C@@H](CCC(=O)O)C(=O)N[C@@H](Cc1ccc(O)cc1)C(=O)N[C@@H](CC(C)C)C(=O)N[C@@H](CCCCN)C(=O)N[C@@H](CCCCN)C(=O)N[C@H](C(=O)N[C@@H](CCC(N)=O)C(=O)N[C@@H](CC(N)=O)C(=O)N[C@@H](CO)C(=O)N[C@@H](CC(C)C)C(=O)N[C@@H](CO)C(=O)N[C@H](C(=O)N[C@@H](CCC(=O)O)C(=O)N[C@@H](Cc1c[nH]c2ccccc12)C(=O)N[C@@H](CO)C(=O)N1CCC[C@H]1C(=O)N[C@@H](CS)C(=O)N[C@@H](CO)C(N)=O)[C@@H](C)O)[C@@H](C)CC)[C@@H](C)O [ICS2] (Ac-ITEYLKKIQNSLSTEWSPCS-NH2)
[1]; DR1 donors N=5, ICCS after 14-day co-culture
  Percentage of donors demonstrating IFN-γ responses, DR1: 40%
[1]; DR1 donors N=5, ICCS
  Percentage of donors demonstrating IL-2 responses, DR1: 40%
  Percentage of donors demonstrating IL-4 responses, DR1: 0%
  Percentage of donors demonstrating IL-10 responses, DR1: 0%
  Percentage of donors demonstrating TNF-α responses, DR1: 40%
[1]; DR3 donors N=6, ICCS after 14-day co-culture
  Percentage of donors demonstrating IFN-γ responses, DR3: 33%
[1]; DR3 donors N=6, ICCS
  Percentage of donors demonstrating IL-2 responses, DR3: 33%
  Percentage of donors demonstrating IL-4 responses, DR3: 33%
  Percentage of donors demonstrating IL-10 responses, DR3: 33%
  Percentage of donors demonstrating TNF-α responses, DR3: 17%
[1]; DR4 donors N=10, ICCS after 14-day co-culture
  Percentage of donors demonstrating IFN-γ responses, DR4: 40%
[1]; DR4 donors N=10, ICCS
  Percentage of donors demonstrating IL-2 responses, DR4: 20%
  Percentage of donors demonstrating IL-4 responses, DR4: 10%
  Percentage of donors demonstrating IL-10 responses, DR4: 0%
  Percentage of donors demonstrating TNF-α responses, DR4: 50%
[1]; DR7 donors N=4, ICCS after 14-day co-culture
  Percentage of donors demonstrating IFN-γ responses, DR7: 50%
[1]; DR7 donors N=4, ICCS
  Percentage of donors demonstrating IL-2 responses, DR7: 0%
  Percentage of donors demonstrating IL-4 responses, DR7: 0%
  Percentage of donors demonstrating IL-10 responses, DR7: 0%
  Percentage of donors demonstrating TNF-α responses, DR7: 25%
[1]; DR8 donors N=4, ICCS after 14-day co-culture
  Percentage of donors demonstrating IFN-γ responses, DR8: 50%
[1]; DR8 donors N=4, ICCS
  Percentage of donors demonstrating IL-2 responses, DR8: 25%
  Percentage of donors demonstrating IL-4 responses, DR8: 0%
  Percentage of donors demonstrating IL-10 responses, DR8: 25%
  Percentage of donors demonstrating TNF-α responses, DR8: 50%
[1]; DR9 donors N=4, ICCS after 14-day co-culture
  Percentage of donors demonstrating IFN-γ responses, DR9: 0%
[1]; DR9 donors N=4, ICCS
  Percentage of donors demonstrating IL-2 responses, DR9: 25%
  Percentage of donors demonstrating IL-4 responses, DR9: 0%
  Percentage of donors demonstrating IL-10 responses, DR9: 0%
  Percentage of donors demonstrating TNF-α responses, DR9: 25%
[1]; DR11 donors N=4, ICCS after 14-day co-culture
  Percentage of donors demonstrating IFN-γ responses, DR11: 25%
[1]; DR11 donors N=4, ICCS
  Percentage of donors demonstrating IL-2 responses, DR11: 25%
  Percentage of donors demonstrating IL-4 responses, DR11: 0%
  Percentage of donors demonstrating IL-10 responses, DR11: 0%
  Percentage of donors demonstrating TNF-α responses, DR11: 50%
[1]; DR13 donors N=7, ICCS after 14-day co-culture
  Percentage of donors demonstrating IFN-γ responses, DR13: 57%
[1]; DR13 donors N=7, ICCS
  Percentage of donors demonstrating IL-2 responses, DR13: 29%
  Percentage of donors demonstrating IL-4 responses, DR13: 14%
  Percentage of donors demonstrating IL-10 responses, DR13: 29%
  Percentage of donors demonstrating TNF-α responses, DR13: 71%
[1]; DR15 donors N=7, ICCS after 14-day co-culture
  Percentage of donors demonstrating IFN-γ responses, DR15: 43%
[1]; DR15 donors N=7, ICCS
  Percentage of donors demonstrating IL-2 responses, DR15: 14%
  Percentage of donors demonstrating IL-4 responses, DR15: 0%
  Percentage of donors demonstrating IL-10 responses, DR15: 14%
  Percentage of donors demonstrating TNF-α responses, DR15: 29%
HLA-DRB1*1501
  IC50: 8.47 µM
HLA-DRB1*0101
  IC50: 83.9 µM
HLA-DRB1*0401
  IC50: 0.377 µM
HLA-DRB1*0701
  IC50: 20 µM
HLA-DRB1*1101
  IC50: 43.7 µM
HLA-DRB1*1301
  IC50: 73.2 µM
HLA-DRB1*0801
  IC50: 4.76 µM
